Reference: paper PMC3880597 (Journal of medicinal chemistry, 2013)

Key:
[1] = Pharmacokinetics and brain distribution after single sc dose to mice; type: in vivo
[2] = target: MMP-9cat (catalytic domain of human recombinant MMP-9) (Homo sapiens, UniProt P14780); experiment: MMP inhibition kinetics, MMP-9cat; type: biochemical; settings: slow-binding; Ki calculated from koff/kon
[3] = Metabolic stability in male rat liver S9; type: in vitro ADME
[4] = female, C57Bl/6J, mouse, in vivo, 25 mg/kg
[5] = female, C57Bl/6J, mouse, in vivo, sc, 25 mg/kg

MMP-9cat (catalytic domain of human recombinant MMP-9), sequence (P14780 107-444 limits assumed): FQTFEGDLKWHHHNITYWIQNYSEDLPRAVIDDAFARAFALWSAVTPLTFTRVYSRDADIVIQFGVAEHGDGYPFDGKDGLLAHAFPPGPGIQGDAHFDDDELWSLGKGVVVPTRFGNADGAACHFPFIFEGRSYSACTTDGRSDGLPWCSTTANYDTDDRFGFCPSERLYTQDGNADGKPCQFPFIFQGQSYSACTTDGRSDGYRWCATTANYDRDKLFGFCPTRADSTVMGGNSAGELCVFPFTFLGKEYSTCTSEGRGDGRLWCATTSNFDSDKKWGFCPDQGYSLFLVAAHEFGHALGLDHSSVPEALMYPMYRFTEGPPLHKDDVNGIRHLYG

Q: For `CCNC(=O)Oc1ccc(Oc2ccc(S(=O)(=O)CC3CS3)cc2)cc1` (stereo not drawn) [Compound 5b, 4-(4-((Thiiran-2-ylmethyl)sulfonyl)phenoxy)phenyl ethylcarbamate], which “level of 5b in plasma or brain” value ([1]; after 25 mg/kg sc dose of 5b, all time points) is on record?
A: not quantifiable

Q: For `CCNC(=O)Nc1ccc(Oc2ccc(S(=O)(=O)CC3CS3)cc2)cc1` (stereo not drawn) [Compound 6b, 1-Ethyl-3-(4-(4-((thiiran-2-ylmethyl)sulfonyl)phenoxy)phenyl)urea], which “elimination half-life in brain relative to plasma” value ([1]; 6b after 25 mg/kg sc dose of 6b) is on record?
A: 3.3 fold

Q: And the “hydrolysis of 6b to give compound 3 in plasma and brain” value ([1]; after 25 mg/kg sc dose of 6b)?
A: not observed

Q: And the “time of maximal brain level of 6b” value ([1]; after 25 mg/kg sc dose of 6b)?
A: 10 min

Q: Which “Ki (inhibition constant) against MMP-9cat” value [2] does the source give for `CCOC(=O)Nc1ccc(Oc2ccc(S(=O)(=O)CC3CS3)cc2)cc1` (stereo not drawn) [Compound 7b, Ethyl (4-(4-((thiiran-2-ylmethyl)sulfonyl)phenoxy)phenyl)carbamate] here?
A: comparable inhibition constants against MMP-9cat as ND-322

Q: What does the source list for `O=S(=O)(CC1CS1)c1ccc(Oc2ccc(O)cc2)cc1` (stereo not drawn) [Compound 2]?
A: time of maximal brain level of 2 ([1]; after 25 mg/kg sc dose of 5b): 20 min; maximal brain level of 2, molar equivalent ([1]; after 25 mg/kg sc dose of 5b, at 20 min, assuming a density of 1.0 g/mL): 1.35 ± 1.10 µM; brain level of 2 at 4 h ([1]; after 25 mg/kg sc dose of 5b, mice): 0.255 ± 0.0154 pmol/mg; maximal plasma concentration of 2 ([1]; after 25 mg/kg sc dose of 5b, mice, at 10 min): 1.24 ± 0.676 µM; maximal brain level of 2 ([1]; after 25 mg/kg sc dose of 5b, mice, at 20 min): 1.35 ± 1.10 pmol/mg tissue; t½α, plasma ([1]; compound 2 after 25 mg/kg sc dose of 5b, mice): 0.688 h; Kp [1, 4]: 1.64; concentration at 4 h [1, 4]: 114 ± 14.7 nM; AUC(0-inf) [1, 5]: 1.17 µM·h; AUC(0-t) [1, 5]: 0.9 µM·h; Tmax [1, 5]: 0.167 h; half-life ([1]; female, C57Bl/6J, mouse, in vivo, sc, 25 mg/kg, t½β, brain): 8.88 h; half-life ([1]; female, C57Bl/6J, mouse, in vivo, sc, 25 mg/kg, t½β, plasma): 7.7 h; half-life ([1]; female, C57Bl/6J, mouse, in vivo, sc, terminal half-life in brain): 8.9 h; half-life ([1]; female, C57Bl/6J, mouse, in vivo, sc, terminal half-life in plasma): 7.7 h; AUC0-last, brain ([1]; mouse, in vivo, sc, 25 mg/kg): 88.8 pmol·min/mg; AUC0-∞, brain ([1]; mouse, in vivo, sc, 25 mg/kg): 129 pmol·min/mg

Q: With `CCOC(=O)Oc1ccc(Oc2ccc(S(=O)(=O)CC3CS3)cc2)cc1` (stereo not drawn) [Compound 4b, Ethyl (4-(4-((thiiran-2-ylmethyl)sulfonyl)phenoxy)phenyl) carbonate] as the compound, how does the “time to complete hydrolysis to compound 2” value [3] read?
A: ≤ 5 min

Q: And the “Ki (inhibition constant) against MMP-9cat” value [2]?
A: comparable inhibition constants against MMP-9cat as ND-322
